Data from ChEMBL document CHEMBL5038625, “Application of the dual-tail approach for the design and synthesis of novel Thiopyrimidine-Benzenesulfonamide hybrids as selective carbonic anhydrase inhibitors” (Eur J Med Chem, 2022).

How the values were obtained:
LOX IMVI = assay: Antiproliferative activity against human LOX IMVI cells assessed as cell growth inhibition at 10 uM incubated for 24 hrs by sulforhodamine B assay; assay type: functional; conditions: read-out: GI
U-251 = assay: Antiproliferative activity against human U-251 cells assessed as cell growth inhibition at 10 uM incubated for 24 hrs by sulforhodamine B assay; assay type: functional; conditions: read-out: GI
KM12 = assay: Antiproliferative activity against human KM12 cells assessed as cell growth inhibition at 10 uM incubated for 24 hrs by sulforhodamine B assay; assay type: functional; conditions: read-out: GI
OVCAR-8 = assay: Antiproliferative activity against human OVCAR-8 cells assessed as cell growth inhibition at 10 uM incubated for 24 hrs by sulforhodamine B assay; assay type: functional; conditions: read-out: GI
HL-60 = assay: Antiproliferative activity against human HL-60 cells assessed as cell growth inhibition at 10 uM incubated for 24 hrs by sulforhodamine B assay; assay type: functional; conditions: read-out: GI
M14 = assay: Antiproliferative activity against human M14 cells assessed as cell growth inhibition at 10 uM incubated for 24 hrs by sulforhodamine B assay; assay type: functional; conditions: read-out: GI
A549 = assay: Antiproliferative activity against human A549 cells assessed as cell growth inhibition at 10 uM incubated for 24 hrs by sulforhodamine B assay; assay type: functional; conditions: read-out: GI
IGROV-1 = assay: Antiproliferative activity against human IGROV-1 cells assessed as cell growth inhibition at 10 uM incubated for 24 hrs by sulforhodamine B assay; assay type: functional; conditions: read-out: GI
Hs-578T = assay: Antiproliferative activity against human HS-578T cells assessed as cell growth inhibition at 10 uM incubated for 24 hrs by sulforhodamine B assay; assay type: functional; conditions: read-out: GI
NCI/ADR-RES = assay: Antiproliferative activity against human NCI-ADR-RES cells assessed as cell growth inhibition at 10 uM incubated for 24 hrs by sulforhodamine B assay; assay type: functional; conditions: read-out: GI
SW-620 = assay: Antiproliferative activity against human SW-620 cells assessed as cell growth inhibition at 10 uM incubated for 24 hrs by sulforhodamine B assay; assay type: functional; conditions: read-out: GI
K562 = assay: Antiproliferative activity against human K562 cells assessed as cell growth inhibition at 10 uM incubated for 24 hrs by sulforhodamine B assay; assay type: functional; conditions: read-out: GI
MDA-MB-231 = assay: Antiproliferative activity against human MDA-MB-231 cells assessed as cell growth inhibition at 10 uM incubated for 24 hrs by sulforhodamine B assay; assay type: functional; conditions: read-out: GI
SF-295 = assay: Antiproliferative activity against human SF-295 cells assessed as cell growth inhibition at 10 uM incubated for 24 hrs by sulforhodamine B assay; assay type: functional; conditions: read-out: GI
NCI-H522 = assay: Antiproliferative activity against human NCI-H522 cells assessed as cell growth inhibition at 10 uM incubated for 24 hrs by sulforhodamine B assay; assay type: functional; conditions: read-out: GI
MOLT-4 = assay: Antiproliferative activity against human MOLT-4 cells assessed as cell growth inhibition at 10 uM incubated for 24 hrs by sulforhodamine B assay; assay type: functional; conditions: read-out: GI
SF-268 = assay: Antiproliferative activity against human SF-268 cells assessed as cell growth inhibition at 10 uM incubated for 24 hrs by sulforhodamine B assay; assay type: functional; conditions: read-out: GI
UACC-62 = assay: Antiproliferative activity against human UACC-62 cells assessed as cell growth inhibition at 10 uM incubated for 24 hrs by sulforhodamine B assay; assay type: functional; conditions: read-out: GI
DU-145 = assay: Antiproliferative activity against human DU-145 cells assessed as cell growth inhibition at 10 uM incubated for 24 hrs by sulforhodamine B assay; assay type: functional; conditions: read-out: GI
CAKI-1 = assay: Antiproliferative activity against human CAKI-1 cells assessed as cell growth inhibition at 10 uM incubated for 24 hrs by sulforhodamine B assay; assay type: functional; conditions: read-out: GI
SF-539 = assay: Antiproliferative activity against human SF-539 cells assessed as cell growth inhibition at 10 uM incubated for 24 hrs by sulforhodamine B assay; assay type: functional; conditions: read-out: GI
NCI-H460 = assay: Antiproliferative activity against human NCI-H460 cells assessed as cell growth inhibition at 10 uM incubated for 24 hrs by sulforhodamine B assay; assay type: functional; conditions: read-out: GI
PC-3 = assay: Antiproliferative activity against human PC-3 cells assessed as cell growth inhibition at 10 uM incubated for 24 hrs by sulforhodamine B assay; assay type: functional; conditions: read-out: GI
RXF 393 = assay: Antiproliferative activity against human RXF 393 cells assessed as cell growth inhibition at 10 uM incubated for 24 hrs by sulforhodamine B assay; assay type: functional; conditions: read-out: GI
HT-29 = assay: Antiproliferative activity against human HT-29 cells assessed as cell growth inhibition at 10 uM incubated for 24 hrs by sulforhodamine B assay; assay type: functional; conditions: read-out: GI
RPMI-8226 = assay: Antiproliferative activity against human RPMI-8226 cells assessed as cell growth inhibition at 10 uM incubated for 24 hrs by sulforhodamine B assay; assay type: functional; conditions: read-out: GI
[1] = Antiproliferative activity against human […] cells assessed as cell growth inhibition at 10 uM incubated for 24 hrs by sulforhodamine B assay; assay type: functional; conditions: read-out: GI
CCRF-CEM = assay: Antiproliferative activity against human CCRF-CEM cells assessed as cell growth inhibition at 10 uM incubated for 24 hrs by sulforhodamine B assay; assay type: functional; conditions: read-out: GI
COLO 205 = assay: Antiproliferative activity against human COLO 205 cells assessed as cell growth inhibition at 10 uM incubated for 24 hrs by sulforhodamine B assay; assay type: functional; conditions: read-out: GI
SNB-75 = assay: Antiproliferative activity against human SNB-75 cells assessed as cell growth inhibition at 10 uM incubated for 24 hrs by sulforhodamine B assay; assay type: functional; conditions: read-out: GI
HCT-116 = assay: Antiproliferative activity against human HCT-116 cells assessed as cell growth inhibition at 10 uM incubated for 24 hrs by sulforhodamine B assay; assay type: functional; conditions: read-out: GI
A498 = assay: Antiproliferative activity against human A498 cells assessed as cell growth inhibition at 10 uM incubated for 24 hrs by sulforhodamine B assay; assay type: functional; conditions: read-out: GI
ACHN = assay: Antiproliferative activity against human ACHN cells assessed as cell growth inhibition at 10 uM incubated for 24 hrs by sulforhodamine B assay; assay type: functional; conditions: read-out: GI
MDA-MB-435 = assay: Antiproliferative activity against human MDA-MB-435 cells assessed as cell growth inhibition at 10 uM incubated for 24 hrs by sulforhodamine B assay; assay type: functional; conditions: read-out: GI
SNB-19 = assay: Antiproliferative activity against human SNB-19 cells assessed as cell growth inhibition at 10 uM incubated for 24 hrs by sulforhodamine B assay; assay type: functional; conditions: read-out: GI
EKVX = assay: Antiproliferative activity against human EKVX cells assessed as cell growth inhibition at 10 uM incubated for 24 hrs by sulforhodamine B assay; assay type: functional; conditions: read-out: GI
Carbonic anhydrase 9 = Carbonic anhydrase 9 (Homo sapiens, UniProt Q16790); assay: Inhibition of human CA9 preincubated for 15 mins by phenol red dye based stopped flow CO2 hydration assay
UO-31 = assay: Antiproliferative activity against human UO-31 cells assessed as cell growth inhibition at 10 uM incubated for 24 hrs by sulforhodamine B assay; assay type: functional; conditions: read-out: GI
OVCAR-3 = assay: Antiproliferative activity against human OVCAR-3 cells assessed as cell growth inhibition at 10 uM incubated for 24 hrs by sulforhodamine B assay; assay type: functional; conditions: read-out: GI
NCI-H226 = assay: Antiproliferative activity against human NCI-H226 cells assessed as cell growth inhibition at 10 uM incubated for 24 hrs by sulforhodamine B assay; assay type: functional; conditions: read-out: GI
NCI-H23 = assay: Antiproliferative activity against human NCI-H23 cells assessed as cell growth inhibition at 10 uM incubated for 24 hrs by sulforhodamine B assay; assay type: functional; conditions: read-out: GI
MCF7 = assay: Antiproliferative activity against human MCF7 cells assessed as cell growth inhibition at 10 uM incubated for 24 hrs by sulforhodamine B assay; assay type: functional; conditions: read-out: GI
T47D = assay: Antiproliferative activity against human T47D cells assessed as cell growth inhibition at 10 uM incubated for 24 hrs by sulforhodamine B assay; assay type: functional; conditions: read-out: GI
SR = assay: Antiproliferative activity against human SR cells assessed as cell growth inhibition at 10 uM incubated for 24 hrs by sulforhodamine B assay; assay type: functional; conditions: read-out: GI
MDA-MB-468 = assay: Antiproliferative activity against human MDA-MB-468 cells assessed as cell growth inhibition at 10 uM incubated for 24 hrs by sulforhodamine B assay; assay type: functional; conditions: read-out: GI
OVCAR-4 = assay: Antiproliferative activity against human OVCAR-4 cells assessed as cell growth inhibition at 10 uM incubated for 24 hrs by sulforhodamine B assay; assay type: functional; conditions: read-out: GI
HCT-15 = assay: Antiproliferative activity against human HCT-15 cells assessed as cell growth inhibition at 10 uM incubated for 24 hrs by sulforhodamine B assay; assay type: functional; conditions: read-out: GI
SN12C = assay: Antiproliferative activity against human SN12C cells assessed as cell growth inhibition at 10 uM incubated for 24 hrs by sulforhodamine B assay; assay type: functional; conditions: read-out: GI
SK-MEL-5 = assay: Antiproliferative activity against human SK-MEL-5 cells assessed as cell growth inhibition at 10 uM incubated for 24 hrs by sulforhodamine B assay; assay type: functional; conditions: read-out: GI

COc1ccc(OC)c(-c2nc(SCC(=O)c3ccc(Br)cc3)nc(Nc3cccc(S(N)(=O)=O)c3)c2C#N)c1
inhibition of growth at 10 µM (LOX IMVI): 16.6%
inhibition of growth at 10 µM (U-251): 19.1%
inhibition of growth at 10 µM (KM12): 11.8%
inhibition of growth at 10 µM (OVCAR-8): 14.2%
inhibition of growth at 10 µM (HL-60): 10.3%
inhibition of growth at 10 µM (M14): 6.53%
inhibition of growth at 10 µM (A549): 26.7%
inhibition of growth at 10 µM (IGROV-1): 8.33%
inhibition of growth at 10 µM (Hs-578T): 25.5%
inhibition of growth at 10 µM (NCI/ADR-RES): 8.77%
inhibition of growth at 10 µM (SW-620): 13.9%
inhibition of growth at 10 µM (K562): 29.5%
inhibition of growth at 10 µM (MDA-MB-231): 23.8%
inhibition of growth at 10 µM (SF-295): 13.3%
inhibition of growth at 10 µM (NCI-H522): 5.79%
inhibition of growth at 10 µM (MOLT-4): 45.3%
inhibition of growth at 10 µM (SF-268): 23.7%
inhibition of growth at 10 µM (UACC-62): 11.6%
inhibition of growth at 10 µM (DU-145): 12.9%
inhibition of growth at 10 µM (CAKI-1): 52.1%
inhibition of growth at 10 µM (SF-539): 16.5%
inhibition of growth at 10 µM (NCI-H460): 22.5%
inhibition of growth at 10 µM (PC-3): 34.1%
inhibition of growth at 10 µM (RXF 393): 39.8%
inhibition of growth at 10 µM (HT-29): 9.87%
inhibition of growth at 10 µM (RPMI-8226): 18.5%
inhibition of growth at 10 µM [1]: 14%
inhibition of growth at 10 µM (CCRF-CEM): 20.1%
inhibition of growth at 10 µM (COLO 205): 14.6%
inhibition of growth at 10 µM (SNB-75): 23.1%
inhibition of growth at 10 µM (HCT-116): 27.9%
inhibition of growth at 10 µM (A498): 22.5%
inhibition of growth at 10 µM (ACHN): 20.2%
inhibition of growth at 10 µM (MDA-MB-435): 15.4%
inhibition of growth at 10 µM (SNB-19): 16.4%
inhibition of growth at 10 µM (EKVX): 18.4%
Ki (Carbonic anhydrase 9): 60.1 nM
inhibition of growth at 10 µM (UO-31): 50.2%
inhibition of growth at 10 µM (OVCAR-3): 22.4%
inhibition of growth at 10 µM (NCI-H226): 15.2%
inhibition of growth at 10 µM (NCI-H23): 7.31%
inhibition of growth at 10 µM (MCF7): 28.6%
inhibition of growth at 10 µM (T47D): 23.9%
inhibition of growth at 10 µM (SR): 30.5%
inhibition of growth at 10 µM (MDA-MB-468): 15.4%
inhibition of growth at 10 µM (OVCAR-4): 24.1%
inhibition of growth at 10 µM (HCT-15): 23.4%
inhibition of growth at 10 µM (SN12C): 18.1%
inhibition of growth at 10 µM (SK-MEL-5): 5.18%
